Measured values as given in US10611740B2, “Aryl dihydro-2H-benzo[b][1,4]oxazine sulfonamide and related compounds for use as agonists of RORγ and the treatment of disease” (Lycera Corporation, priority 2015, dated 2020).

Legend:
Gal4-RORγ-LBD = target: T1, Gal4-RORγ-LBD (Homo sapiens, UniProt P51449); experiment: Gal4-RORγ Luciferase Reporter Assay in HEK-293T Cells; format: cell-based; settings: HEK-293 cells
T1 construct: expressed in transfected cells; host or cells: HEK-293 cells (pcDNA3.1neo plasmid)
T1 sequence (P51449 269-508 limits assumed): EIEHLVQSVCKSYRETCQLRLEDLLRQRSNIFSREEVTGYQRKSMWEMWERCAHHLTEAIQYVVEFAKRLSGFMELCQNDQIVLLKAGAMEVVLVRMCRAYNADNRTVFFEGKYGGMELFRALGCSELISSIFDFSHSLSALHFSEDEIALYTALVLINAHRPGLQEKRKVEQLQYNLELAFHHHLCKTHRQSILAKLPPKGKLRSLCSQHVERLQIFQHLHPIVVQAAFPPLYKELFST
Method in brief: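 HEK-293 cells were transiently co-transfected with Gal4-RORγ-LBD and pGL4.31 Gal4-luciferase, with ursolic acid added at 2 μM final. Compounds were incubated overnight at 37° C. in 0.2% DMSO and luminescence read with One-Glo. Max Response is the upper plateau of a 4-parameter logistic fit, with signal lacking ursolic acid or compound set to 100.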

RORγ-LBD = target: T2, RORγ-LBD (Homo sapiens, UniProt P51449); experiment: RORγ-Ligand Binding Domain (LBD) TR-FRET Assay; format: biochemical;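 for TR-FRET Assay Max Response: 665/615 nm ratio relative to signal without ursolic acid or compound set at 100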
T2 construct: made in house; host or cells: SF9 cells (baculovirus)
T2 sequence (P51449 269-508 limits assumed): T1 sequence (P51449 269-508 limits assumed)
Method in brief: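 Compounds, diluted in DMSO and then in assay buffer (1% DMSO final), were combined with His-tagged RORγ-LBD lysate at roughly 3 nM final and a 200 nM biotinylated SRC1 LXXLL peptide. Ursolic acid was included at 2 μM final. Coactivator recruitment was detected by TR-FRET.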

[1] = luciferase reporter, with 2 μM ursolic acid

Row | EC50 (Gal4-RORγ-LBD; 2 μM ursolic acid) | EC50 (RORγ-LBD) | EC50 (Gal4-RORγ-LBD; [1]) | SMILES | Gal4-RORγ Assay Max Response (Gal4-RORγ-LBD; 2 μM ursolic acid) | TR-FRET Assay Max Response (RORγ-LBD) | Gal4-RORγ Assay Max Response (Gal4-RORγ-LBD; [1])
1 | < 500 nM | < 500 nM |  | COc1cc(F)cc(-c2ccc3c(c2)N(S(=O)(=O)c2cccc(C(F)(F)F)c2)C[C@H](CC2(C(=O)O)COC2)O3)c1F [Compound 51C, (S)-3-((6-(2,5-difluoro-3-methoxyphenyl)-4-((3-(trifluoromethyl)phenyl)sulfonyl)-3,4-dihydro-2H-benzo[b][1,4]oxazin-2-yl)methyl)oxetane-3-carboxylic acid] | ** (The symbol “**” indicates a value in the range of greater than 90 to 150) | ** (The symbol “**” indicates a value in the range of greater than 90 to 150) | 
2 | < 500 nM | < 500 nM |  | Cc1c(Cl)cccc1-c1ccc2c(c1)N(S(=O)(=O)c1cccc(C(F)(F)F)c1)C[C@H](CC(C)(C)C(=O)O)O2 [Compound 32AZ, (S)-3-(6-(3-chloro-2-methyl-phenyl)-4-((3-(trifluoromethyl)-phenyl)sulfonyl)-3,4-dihydro-2H-benzo[b][1,4]oxazin-2-yl)-2,2-dimethylpropanoic acid] | ** (The symbol “**” indicates a value in the range of greater than 90 to 150) | ** (The symbol “**” indicates a value in the range of greater than 90 to 150) | 
3 |  | < 500 nM | < 500 nM | O=C(CC[C@H]1CN(S(=O)(=O)c2cccc(C(F)(F)F)c2)c2cc(-c3cccc(Cl)c3)ccc2O1)N1CCS(=O)(=O)CC1 [Compound 23A, (S)-3-(6-(3-chlorophenyl)-4-((3-(trifluoromethyl)phenyl)sulfonyl)-3,4-dihydro-2H-benzo[b][1,4]-oxazin-2-yl)-1-(1,1-dioxidothio-morpholino)propan-1-one] |  | **** (The symbol “****” indicates a value greater than 200) | ** (The symbol “**” indicates a value in the range of greater than 90 to 150)
4 | < 500 nM | < 500 nM |  | COc1cc(S(=O)(=O)N2C[C@H](CNC(=O)[C@@](C)(O)C(F)(F)F)Oc3ccc(-c4cccc(C(F)(F)F)n4)cc32)ccc1F [Compound 30CC, (R)-3,3,3-trifluoro-N-(((S)-4-((4-fluoro-3-methoxyphenyl)-sulfonyl)-6-(6-(trifluoromethyl)-pyridin-2-yl)-3,4-dihydro-2H-benzo[b][1,4]oxazin-2-yl)methyl)-2-hydroxy-2-methylpropanamide] | ** (The symbol “**” indicates a value in the range of greater than 90 to 150) | *** (The symbol “***” indicates a value in the range of greater than 150 to 200) | 
5 |  | < 500 nM | 500 to 5000 nM | CCOc1cccc(-c2ccc3c(c2)N(S(=O)(=O)c2cccc(C(F)(F)F)c2)C[C@H](CCC(=O)O)O3)c1 [Compound 2AS, (S)-3-(6-(3-ethoxyphenyl)-4-((3-(trifluoromethyl)phenyl)-sulfonyl)-3,4-dihydro-2H-benzo[b][1,4]-oxazin-2-yl)propanoic acid] |  | **** (The symbol “****” indicates a value greater than 200) | ** (The symbol “**” indicates a value in the range of greater than 90 to 150)
6 |  | < 500 nM | < 500 nM | CC(C)(C)C(=O)NC[C@H]1CN(S(=O)(=O)c2cccc(C(F)(F)F)c2)c2cc(-c3cc(F)ccc3F)ccc2O1 [Compound 30AO, (S)-N-((6-(2,5-difluorophenyl)-4-((3-(trifluoromethyl)phenyl)-sulfonyl)-3,4-dihydro-2H-benzo[b][1,4]oxazin-2-yl)methyl)pivalamide] |  | **** (The symbol “****” indicates a value greater than 200) | * (The symbol “*” indicates a value in the range of 25 to 90)
7 |  | < 500 nM | 500 to 5000 nM | CC(C)Oc1cccc(-c2ccc3c(c2)N(S(=O)(=O)c2cccc(C(F)(F)F)c2)C[C@H](CCC(=O)O)O3)c1 [Compound 2AV, (S)-3-(6-(3-isopropoxyphenyl)-4-((3-(trifluoromethyl)phenyl)-sulfonyl)-3,4-dihydro-2H-benzo[b][1,4]oxazin-2-yl)propanoic acid] |  | **** (The symbol “****” indicates a value greater than 200) | * (The symbol “*” indicates a value in the range of 25 to 90)
8 |  | 500 to 5000 nM | > 10000 nM | Cn1cncc1-c1ccc2c(c1)N(S(=O)(=O)c1cccc(C(F)(F)F)c1)C[C@H](CCC(=O)O)O2 [Compound 4K, (S)-3-(6-(1-methyl-1H-imidazol-5-yl)-4-((3-(trifluoromethyl)-phenyl)sulfonyl)-3,4-dihydro-2H-benzo[b][1,4]oxazin-2-yl)propanoic acid] |  | **** (The symbol “****” indicates a value greater than 200) | 
9 |  | < 500 nM | < 500 nM | COc1cccc(-c2cc(F)c3c(c2)N(S(=O)(=O)c2cccc(C(F)(F)F)c2)C[C@H](CCC(=O)N2CCC(C(=O)O)CC2)O3)c1 [Compound 23H, (S)-1-(3-(8-fluoro-6-(3-methoxyphenyl)-4-((3-(trifluoromethyl)phenyl)sulfonyl)-3,4-dihydro-2H-benzo[b][1,4]oxazin-2-yl)propanoyl)piperidine-4-carboxylic acid] |  | **** (The symbol “****” indicates a value greater than 200) | ** (The symbol “**” indicates a value in the range of greater than 90 to 150)
10 |  | < 500 nM | < 500 nM | CC(C)(O)C(=O)NC[C@H]1CN(S(=O)(=O)c2cccc(C(F)(F)F)c2)c2cc(-c3cccc(C(F)(F)F)n3)ccc2O1 [Compound 30I, (S)-2-hydroxy-2-methyl-N-((4-((3-(trifluoromethyl)phenyl)-sulfonyl)-6-(6-(trifluoromethyl)-pyridin-2-yl)-3,4-dihydro-2H-benzo[b][1,4]oxazin-2-yl)methyl)propanamide] |  | **** (The symbol “****” indicates a value greater than 200) | * (The symbol “*” indicates a value in the range of 25 to 90)
11 |  | < 500 nM | < 500 nM | O=C(O)CC[C@H]1CN(S(=O)(=O)c2cccc(C(F)(F)F)c2)c2cc(-c3cc(F)cc(Cl)c3F)ccc2O1 [Compound 4AY, (S)-3-(6-(3-chloro-2,5-difluorophenyl)-4-((3-(trifluoromethyl)phenyl)-sulfonyl)-3,4-dihydro-2H-benzo[b][1,4]oxazin-2-yl)propanoic acid] |  | *** (The symbol “***” indicates a value in the range of greater than 150 to 200) | ** (The symbol “**” indicates a value in the range of greater than 90 to 150)
12 |  | < 500 nM | < 500 nM | O=C(O)C1CCN(C(=O)CC[C@H]2CN(S(=O)(=O)c3cccc(C(F)(F)F)c3)c3cc(-c4cccc(F)c4F)ccc3O2)CC1 [Compound 23P, (S)-1-(3-(6-(2,3-difluorophenyl)-4-((3-(trifluoromethyl)-phenyl)sulfonyl)-3,4-dihydro-2H-benzo[b][1,4]oxazin-2-yl)propanoyl)piperidine-4-carboxylic acid] |  | **** (The symbol “****” indicates a value greater than 200) | *** (The symbol “***” indicates a value in the range of greater than 150 to 200)
